From patent EP1171146B1, “PHARMACEUTICAL CO[…] GINKGO BILOBA EXTRACT USEFUL FOR TREATING DEMENTIA” (priority 1999, dated 2000)

Tests used:
[1] = tested on: glutathione(GSH) peroxidase; assay: Glutathione peroxidase activity after partial ischemia and reperfusion; details: cerebral cortex; 30 min ischemia, 3 hours reperfusion; 3-week treatment; mean±S.E. (n=6)
[2] = tested on: SOD(Superoxide dismutase); assay: SOD activity after partial ischemia and reperfusion; assay type: in vivo, Sprague-Dawley rats; details: cerebral cortex; 30 min ischemia, 3 hours reperfusion; 3-week treatment; mean±S.E. (n=6)
Procedure: The supernatant was used as sample.
Previously, a test tube containing 2.3 mℓ of phosphate buffer with pH 7.8, 300 µℓ of 0.5 mM Na-xanthine, 100 µℓ of 50 µm K-cyanide and 100 µℓ of 2.4 mM Na-deoxycholate was prepared and kept in a water bath of 25 °C. To this test tube, 300 µℓ of 0.1 mM ferricytochrome and sample were added.
Then. the solution was transferred to a cell, 100 µℓ of xanthine oxidase was added, a sealing tape was placed on the cell and, while closing well with fingers, the cell was carefully shaken to mix. Changes in absorbance were measured and recorded for one minute at the wavelength of 550 nm.

[3] = tested on: cerebral cortex of ischaemic rats; assay: Dopamine and its metabolites concentrations in partial ischemia (HPLC-ECD); details: vs control, Figure 3
[4] = tested on: pyramidal neuronal cells at CA1 (Ammon's horn) area of the hippocampus; assay: Histopathological examination of hippocampus after complete ischemia and reperfusion (cresyl-violet staining); assay type: in vivo, Mongolian gerbil
Procedure: Gerbils of both control and test groups were anesthetized with injection of pentobarbital sodium at a dose of 50 mg/kg and the carotid arteries on both sides were closed for 5 minutes to induce complete ischemia. After 7 days from initiation of reperfusion, tissues were examined by means of cresyl-violet staining.
Tissue examination under cresyl-violet staining mentioned above was done as follows. Excised cerebellum was cut into slices using sliding microtome and the slices were treated sequentially with xylene and alcohol for five minutes and finally, soaked into distilled water for another 5 minutes. Then, the slice was stained with cresyl-violet which had been prepared in advance.
After staining, the slice was washed one time for 30 minutes with flowing water, followed by dehydrating in alcohol and subsequent two time washings with xylene for 10 minutes. Then, a cover glass was placed on and the specimen was examined under optical microscope.
In the cases of complete ischemia and subsequent reperfusion, biochemical changes will appear initially but some morphological changes may result after a few days. […]

[5] = tested on: rats with memory loss induced by scopolamine; assay: Passive avoidance response test (step-through shuttle box); assay type: in vivo, Sprague-Dawley rats; details: selegiline 2 mg/kg/day and/or Ginkgo biloba extract 48 mg/kg/day p.o. for 3 weeks; scopolamine 6 mg/kg; Figure 1
Procedure: (§1) To evaluate effects on memory and learning functions, rats of each group were challenged with injection of scopolamine, a drug which cause memory loss and then, subjected to the following tests.
Rats of each group were previously subjected to the adaptation training and subsequent exercises in a shuttle box of step-through type. In the real experiment, scopolamine at a dose of 6 mg/kg was given intraperitoneally and, after 30 minutes, passive avoidance responses were determined. Longer latency in response time indicate improved memory and learning fuctions.
In a step-through passive avoidance test, rats of both normal and test group treated with drugs for 3 weeks were put in a shuttle box and tested for latency time required for avoidance response after being given with scopolamine injection to induce memory loss and the results are shown in Figure 1.

[6] = tested on: cerebral cortex of ischemic rats; assay: Energy metabolites in the cerebral cortex in partial ischemia; details: 3-week treatment, mean±S.E. (n=6)
[7] = tested on: MDA(Malondialdehyde); assay: Malondialdehyde measurement after partial ischemia and reperfusion; details: cerebral cortex; 30 min ischemia, 3 hours reperfusion; 3-week treatment; mean±S.E. (n=6)
[8] = tested on: rats with memory loss induced by scopolamine; assay: 8-arm radial maze test; assay type: in vivo, Sprague-Dawley rats; details: selegiline 2 mg/kg/day and/or Ginkgo biloba extract 48 mg/kg/day p.o. for 3 weeks; scopolamine 6 mg/kg; compared with control group; Figure 2
Procedure: as §1
According to 01 ton and Samuelson methods[J. Exp. Psychol. Anim. Behav. Proc. 2, 97(1976)], 8-arm radial maze test system was used. That is, rats of each group were placed in the center of the eight 65-cm arms of the maze test system, which are radially stretched, and 45 mg each of pellet type feed was placed at the end of each arm. Rats were trained to visit the arm-ends to get the pellet type feeds. In real experiment, rats were pre-treated with intraperitoneal injection of scopolamine at a dose of 6 mg/kg as a challenge and subjected to the test after 30 minutes from injection.
Test was repeated for fifty(50) times. Smaller visit errors indicate gained improvements in memory and learning functions.
In order to induce memory loss, scopolamine was injected to the rats of both normal and test groups which received drug treatment for 3 weeks and then the rats were placed in the center of the 8-arm maze test system to record numbers of visit errors to the respective arms.

C#CCN(C)[C@H](C)Cc1ccccc1 [Selegiline]
GSH peroxidase [1]: 2.04±0.22 units/mg protein
SOD activity [2]: 0.42±0.04 units/mg protein
content of dopamine ([3]; 3-week p.o. selegiline 2 mg/kg/day and/or Ginkgo biloba extract 48 mg/kg/day): significant increases
contents of HVA(Homovanillic acid) ([3]; 3-week p.o. treatment): decreased significantly
protection of pyramidal cells at CA1 Ammon's horn site of the hippocampus ([4]; 5 min complete ischemia, 7 days reperfusion, 3-week treatment, Figures 4e-4j): did not show any effects of significance for protection of the cells
Nerve Cell Density ([4]; CA1 site of the hippocampus, mean ± standard error (n=3-4)): 45±10 /mm
avoidance response time (latency) [5]: significant increase
ATP [6]: 1.12±0.04 µmol /g wet wt.
Glucose [6]: 1.21 ±0.02 µmol/g wet wt.
Lactate [6]: 5.42±0.15 µmol/g wet wt.
Pyruvate [6]: 0.10±0.011 µmol/g wet wt.
MDA [7]: 1.80±0.22 nmol/mg protein
visit errors [8]: tended to decrease
